# Where two headings read alike, the source gives them in different places.
# How the values were obtained:
# HeLa-APL = test: SRB colorimetric cell growth inhibition assay, HeLa-APL (aplidine resistant); assay type: cell-based; conditions: Homo sapiens; for GI50: read-out: GI50 HELA-APL; for CC50: read-out: LC50 HELA-APL; for IC (TGI): read-out: TGI HELA-APL
# Outline: (§1)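 Continuous drug exposure of human cancer cells; SRB protein stain read-out; triplicate wells, mean ± SD; GI, TGI, LC computed.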
# HeLa = test: SRB colorimetric cell growth inhibition assay, HeLa; assay type: cell-based; conditions: Homo sapiens, HeLa; for GI50: read-out: GI50 HELA; for CC50: read-out: LC50 HELA; for IC (TGI): read-out: TGI HELA
# Outline: as §1
# human topoisomerase I = molecular target: T1, human topoisomerase I (Homo sapiens, UniProt P11387); test: Topoisomerase I cleavage of radiolabeled 117-bp DNA fragment; assay type: biochemical; conditions: 117-bp DNA restriction fragment 3' end-labeled
# T1 sequence (P11387 1-765): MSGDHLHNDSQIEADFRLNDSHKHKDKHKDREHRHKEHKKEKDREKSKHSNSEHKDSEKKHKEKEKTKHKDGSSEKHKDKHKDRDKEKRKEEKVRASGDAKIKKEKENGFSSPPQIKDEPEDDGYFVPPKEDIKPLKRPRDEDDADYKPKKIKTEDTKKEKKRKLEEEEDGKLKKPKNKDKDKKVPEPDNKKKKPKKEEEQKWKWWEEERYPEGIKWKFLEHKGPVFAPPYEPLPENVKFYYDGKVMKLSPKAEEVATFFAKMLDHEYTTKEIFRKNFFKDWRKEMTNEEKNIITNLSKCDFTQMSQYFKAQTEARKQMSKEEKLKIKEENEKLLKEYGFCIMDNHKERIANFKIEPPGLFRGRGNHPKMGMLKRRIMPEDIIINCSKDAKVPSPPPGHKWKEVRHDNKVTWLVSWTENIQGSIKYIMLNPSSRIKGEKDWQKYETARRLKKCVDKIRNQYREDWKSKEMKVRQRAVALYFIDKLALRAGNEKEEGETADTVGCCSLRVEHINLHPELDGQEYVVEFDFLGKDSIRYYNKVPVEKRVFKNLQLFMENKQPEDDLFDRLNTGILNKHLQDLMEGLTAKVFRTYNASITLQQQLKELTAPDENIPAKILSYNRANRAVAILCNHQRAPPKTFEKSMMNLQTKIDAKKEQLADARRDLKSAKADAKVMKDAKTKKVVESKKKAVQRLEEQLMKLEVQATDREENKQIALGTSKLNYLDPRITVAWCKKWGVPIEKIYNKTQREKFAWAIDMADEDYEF
# From the text: Two assays, based on DNA relaxation and DNA cleavage (Bailly, C. DNA relaxation and cleavage assays to study topoisomerase I inhibitors. Methods Enzymol. 2001, 340, 610-623) were used evaluate the effects of the lamellarin analogs on the catalytic activity of human topoisomerase I.
# A second assay, based on the cleavage of a radiolabeled DNA substrate by topoisomerase I, was used to confirm that the cationic lamellarin derivatives do effectively function as topoisomerase I poisons. A 117-bp DNA restriction fragment uniquely end-labeled at the 3′ end was subjected to cleavage by topoisomerase I in the presence of the different compounds and the resulting DNA cleavage products were resolved on sequencing-type polyacrylamide gels. The advantage of this assay is to detect the cleavage sites and to locate their positions with nucleotide resolution, providing thus information on the site selectivity of cleavage.
# H-MEC-1 = test: SRB colorimetric cell growth inhibition assay, H-MEC-1; assay type: cell-based; conditions: Homo sapiens, HMEC-1, H-MEC-1; for GI50: GI=growth inhibition, read-out: GI50 H-MEC-1; for IC (TGI): total growth inhibition (cytostatic effect), read-out: TGI H-MEC-1
# Outline: (§2)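 Growth inhibition (GI), total growth inhibition (TGI, cytostatic) and lethal concentration (LC, cytotoxic) come from an SRB-based colorimetric measure of growth and viability. Data are triplicate-well means ± SD.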
# [1] = as above; assay type: cell-based; conditions: human
# Outline: as §2
# SKOV-3 = test: SRB colorimetric cell growth inhibition assay, SKOV-3; assay type: cell-based; conditions: Homo sapiens; for GI50: SK-OV-3, SKOV-3, GI=growth inhibition, read-out: GI50 SKOV-3; for IC (TGI): total growth inhibition (cytostatic effect), read-out: TGI SKOV-3
# Outline: as §2
# [2] = HELA-APL, cell killing (cytotoxic effect)
# [3] = HELA-APL, total growth inhibition (cytostatic effect)
# [4] = cell killing (cytotoxic effect)
# [5] = total growth inhibition (cytostatic effect)
# [6] = SK-OV-3, SKOV-3, cell killing (cytotoxic effect), read-out: LC50 SKOV-3
Compound,stimulation of DNA cleavage by topoisomerase I (radiolabeled DNA substrate) (human topoisomerase I),"GI50 (HeLa-APL; HELA-APL, GI=growth inhibition) [nM]",CC50 (HeLa-APL; [2]) [nM],IC (TGI) (HeLa-APL; [3]) [nM],GI50 (HeLa; GI=growth inhibition) [nM],CC50 (HeLa; [4]) [nM],IC (TGI) (HeLa; [5]) [nM],GI50 (H-MEC-1) [nM],IC (TGI) (H-MEC-1) [nM],GI50 (SKOV-3) [nM],LC50 (concentration causing 50% net cell killing) (SKOV-3; [6]) [nM],"IC (TGI) (SKOV-3; SK-OV-3, SKOV-3) [nM]",other results
COc1cc(-c2c3n(c4c(=O)oc5cc(OC(=O)[C@H](C)NC(=O)[C@H](C)NC(=O)OC(C)(C)C)c(OC)cc5c24)CCc2cc(OC(=O)[C@H](C)NC(=O)[C@H](C)NC(=O)OC(C)(C)C)c(OC)cc2-3)ccc1OC(=O)[C@H](C)NC(=O)[C@H](C)NC(=O)OC(C)(C)C [Compound 7],stimulate DNA cleavage by the enzyme,–,–,–,–,–,–,–,–,–,–,–,GI50 (HeLa-APL): 1850 nM; CC50 (HeLa-APL): 7240 nM; IC (TGI) (HeLa-APL): 3660 nM; GI50 (HeLa): 830 nM; CC50 (HeLa): 4420 nM; IC (TGI) (HeLa): 1910 nM
COc1cc(-c2c3n(c4c(=O)oc5cc(OC(=O)CCc6ccccc6)c(OC)cc5c24)CCc2cc(OC(=O)CCc4ccccc4)c(OC)cc2-3)ccc1OC(=O)CCc1ccccc1 [Compound 11],–,5230,11100,11100,208,11100,1350,–,–,–,–,–,–
COc1cc(-c2c3c4cc(OC)c(OC(=O)[C@H](N)C(C)C)cc4oc(=O)c3n3ccc4cc(OC(=O)[C@H](N)C(C)C)c(OC)cc4c23)ccc1OC(=O)[C@H](N)C(C)C [Compound 17],no difference between the (L) (36) and (D) (17) Val isomers,119,1850,353,109,878,359,–,–,–,–,–,–
COc1cc(-c2c3n(c4c(=O)oc5cc(OC(=O)[C@@H](N)Cc6c[nH]c7ccccc67)c(OC)cc5c24)CCc2cc(OC(=O)[C@@H](N)Cc4c[nH]c5ccccc45)c(OC)cc2-3)ccc1OC(=O)[C@@H](N)Cc1c[nH]c2ccccc12 [Compound 24],–,–,–,–,–,–,–,806,2200,1670,6900,3390,"LC50 (concentration giving 50% net cell killing) ([1]; H-MEC-1, cell killing (cytotoxic effect), read-out: LC50 H-MEC-1): 5970 nM"
COc1cc(-c2c3n(c4c(=O)oc5cc(OC(=O)[C@H](N)C(C)C)c(OC)cc5c24)CCc2cc(OC(=O)[C@H](N)C(C)C)c(OC)cc2-3)ccc1OC(=O)[C@H](N)C(C)C [Compound 32],–,–,–,–,–,–,–,276,723,1860,–,3670,"LC50 (concentration giving 50% net cell killing) [1]: 5370 nM; LC50 (concentration causing 50% net cell killing) (SKOV-3; SK-OV-3, read-out: LC50 SKOV-3): 7270 nM"
COc1cc(-c2c3c4cc(OC)c(OC(=O)[C@@H]5CCCN5)cc4oc(=O)c3n3ccc4cc(OC(=O)[C@@H]5CCCN5)c(OC)cc4c23)ccc1OC(=O)[C@@H]1CCCN1 [Compound 33],–,–,–,–,–,–,–,9.8,21.4,39.1,5030,228,"LC50 (concentration giving 50% net cell killing) ([1]; H-MEC-1 cells, H-MEC-1, cell killing (cytotoxic effect), read-out: LC50 H-MEC-1): 46.3 nM; topoisomerase I-mediated DNA cleavage sites / cleavage profile (human topoisomerase I; sequencing-type polyacrylamide gels): Cleavage profiles identical to that of 3"
